We go through four molecules from patent publication US4118561A, “7-(Substituted)-7H-pyrrolo[3,2-f]quinazoline-1,3-diamines” (priority 1977, dated 1978).

In brackets after ≈: the same amount, converted by molar mass.

One series has as its system E. coli 9637. As to the kind of experiment: In vitro antibacterial activity (MIC), E. coli 9637. To be noted: Escherichia coli, 9637, 18 h.
Another series has as its system P. vulgaris 6896. Put plainly: In vitro antibacterial activity (MIC), P. vulgaris 6896. The note with it: Proteus vulgaris, 6896, 18 h.
The next series has as its system K. pneumoniae 10031. As to the kind of experiment: In vitro antibacterial activity (MIC), K. pneumoniae 10031. The note with it: Klebsiella pneumoniae, 10031, 18 h.
Series [1] in a line: Antimalarial blood schizonticidal test in mice. The format is in vivo, Plasmodium berghei (infected ICR/HA Swiss mice). Also noted: ΔMST (increase in mean survival time): unit: days. To be noted: mouse, in vivo, sc, single dose, infected mice; highest dose with no deaths for any reason; read-out: Highest Non-Lethal Dose. An outline of the steps: (§1)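 ICR/HA Swiss mice (18–22 g) infected i.p. with 4 × 10^7 P. berghei KBG 173-parasitized cells; single subcutaneous dose in peanut oil at 72 h post-infection, graded dosages. Survival followed 60 days; 60-day survivors counted cured, deaths before day 6 counted toxic; mean survival time compared with untreated controls.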

The subject of series [2] is Plasmodium berghei KBG 173. As to the kind of experiment: Antimalarial blood schizonticidal test in mice. The format is in vivo, Plasmodium berghei (infected ICR/HA Swiss mice). Also noted: ΔMST (increase in mean survival time): unit: days. To be noted: s.c.; for ED100 / minimal effective dose: Plasmodium berghei, sc, 1440 h, single dose; for ED100 / minimal effective dose / Cure/Treat at Min. Curing Dose: 60-day survivors; for ED100: read-out: Lowest Dose Curing All Mice; for minimal effective dose: read-out: Min. Curing Dose; for Cure/Treat at Min. Curing Dose: at the Min. Curing Dose. An outline of the steps:
as §1

A further series deals with Proteus mirabilis 190. As to the kind of experiment: In vivo antibacterial synergism (mouse), Proteus mirabilis 190. To be noted: mice, p.o.; for ED50: Proteus mirabilis, 190, po, 336 h, treated 0 hours after infecting, read-out: PD50 (agent alone); for PD50 SM/Cpd. (compound part): 0 hours, 20160 min. Further details: species or system Proteus mirabilis (infected mice, CD-1). As to the method:
(§2) The test agents are weighed, suspended in 0.5% aqueous carboxymethyl cellulose, homogenized (glass tissue grinder) and diluted according to the design of the experiment. Mice (male, 18±1 g., CD-1 strain) are pre-weighed, pooled, infected at random intraperitoneally with a 0.5 ml. standardized suspension (LD95 ±5%) of the bacterial organism in 5% gastric mucin and treated at random with single doses of the test agents either at the time of infection or six hours after infecting. The treated groups consist of ten mice per dosage level. Deaths are recorded daily for 14 days and the PD50 (mice are treated at time of infection) and CD50 (mice are treated six hours after infecting) values are calculated by the method of Reed and Muench [Amer. J. Hyg., 27, 493 (1938)].

The next series concerns S. aureus Smith. As to the kind of experiment: In vitro antibacterial activity (MIC), S. aureus Smith. To be noted: Staphylococcus aureus, 18 h.
For a further series, the system named is S. paratyphi 11737. As to the kind of experiment: In vitro antibacterial activity (MIC), S. paratyphi 11737. The format is cell-based. To be noted: Salmonella enterica, 18 h.
For another series, the system named is bacterial infections. As to the kind of experiment: Synergism with sulfamethoxazole against bacterial infections in mice, oral. The class given is in vivo. As to the method: The invention also provides compounds which will potentiate the antibacterial effects of sulfa drugs.
as §2

The subject of a further series is S. aureus 53-180. As to the kind of experiment: In vitro antibacterial activity (MIC), S. aureus 53-180. The note with it: Staphylococcus aureus, 53180, 18 h.
Another series deals with N. catarrhalis 8193. Put plainly: In vitro antibacterial activity (MIC), N. catarrhalis 8193. To be noted: 18 h.

For the molecule `Nc1nc(N)c2c(ccc3c2ccn3Cc2ccc(F)cc2)n1` [Example 5, 7-[(4-fluorophenyl)methyl]-7H-pyrrolo[3,2-f]-quinazoline-1,3-diamine], the MIC was found to be 0.122 µg/mL (≈ 0.397 µM) with E. coli 9637; 0.488 µg/mL (≈ 1.59 µM) against P. vulgaris 6896; 0.031 µg/mL (≈ 0.101 µM) against K. pneumoniae 10031; 0.244 µg/mL (≈ 0.794 µM) against S. aureus Smith; 0.488 µg/mL (≈ 1.59 µM) in the series on S. paratyphi 11737; 0.122 µg/mL (≈ 0.397 µM) against S. aureus 53-180. This molecule also displayed an MIC in the series with N. catarrhalis 8193 of 0.0038 µg/mL (≈ 0.0124 µM). Moreover, the MTD in series [1] came out at 80 mg/kg. Further, in series [2], the ED100 was 20 mg/kg. Besides, the minimal effective dose in [2] is 5 mg/kg. Further, the “Cure/Treat at Min. Curing Dose” value in [2] is on record as 2/5. Moreover, in series [2] (dose 2.5 mg. per kg.), the “ΔMST (increase in mean survival time)” value came to 7.1. Besides, the ED50 with Proteus mirabilis 190 is 9.8 mg/kg. Also, the “PD50 SM/Cpd. (compound part)” value in the series with Proteus mirabilis 190 (with SM 1.56 mg. per kg.) was determined as 1.56 mg. per kg. Further, in the series on bacterial infections, the “synergistic effect with sulfamethoxazole” value is recorded as “synergistic effect”.

With `N#Cc1cccc(Cn2ccc3c4c(N)nc(N)nc4ccc32)c1` [Example 15, 7-[(3-cyanophenyl)methyl]-7H-pyrrolo[3,2-f]-quinazoline-1,3-diamine], the MIC against E. coli 9637 is 0.122 µg/mL (≈ 0.388 µM); against P. vulgaris 6896 it was 0.976 µg/mL (≈ 3.1 µM); against K. pneumoniae 10031, 0.031 µg/mL (≈ 0.0986 µM); in the series with S. aureus Smith it was 0.061 µg/mL (≈ 0.194 µM); against S. paratyphi 11737, 0.488 µg/mL (≈ 1.55 µM); in the series on S. aureus 53-180, 0.031 µg/mL (≈ 0.0986 µM). Also, in the series on N. catarrhalis 8193, the MIC was determined as 0.0038 µg/mL (≈ 0.0121 µM). Moreover, the MTD in series [1] came to 40 mg/kg. In series [2], the ED100 came to 10 mg/kg. The minimal effective dose in series [2] was found to be 1.25 mg/kg. Further, the “Cure/Treat at Min. Curing Dose” value in series [2] is on record as 2/5. For the same molecule, the “ΔMST (increase in mean survival time)” value in series [2] (dose 1.25 mg. per kg.) came out at 9.6. In addition, in the series with Proteus mirabilis 190, the ED50 turned out to be 8.8 mg/kg. Further, the “PD50 SM/Cpd. (compound part)” value in the series on Proteus mirabilis 190 (with SM 1.56 mg. per kg.) is on record as 2.67 mg. per kg. Besides, the “synergistic effect with sulfamethoxazole” value with bacterial infections is “synergistic effect”.

For `N#Cc1ccc(-n2ccc3c4c(N)nc(N)nc4ccc32)cc1` [Example 69, 7-(4-Cyanophenyl)-7H-pyrrolo[3,2-f]-quinazoline-1,3-diamine], the MIC in the series on E. coli 9637 amounted to 0.976 µg/mL (≈ 3.25 µM); against P. vulgaris 6896 it was 125 µg/mL (≈ 416 µM); with K. pneumoniae 10031, 0.122 µg/mL (≈ 0.406 µM); in the series with S. aureus Smith, 0.976 µg/mL (≈ 3.25 µM); with S. paratyphi 11737 it was 31.3 µg/mL (≈ 104 µM); against S. aureus 53-180, 0.488 µg/mL (≈ 1.62 µM). For the same molecule, the MIC with N. catarrhalis 8193 amounted to 0.031 µg/mL (≈ 0.103 µM). Further, the MTD in series [1] turned out to be 20 mg/kg. For the same molecule, the ED100 in [2] came to 20 mg/kg. Further, the minimal effective dose in [2] was 5 mg/kg. The “Cure/Treat at Min. Curing Dose” value in [2] is listed as 3/5. The “ΔMST (increase in mean survival time)” value in series [2] (dose 2.5 mg. per kg.) is given as 11. Also, in the series with Proteus mirabilis 190, the ED50 is greater than 400 mg/kg. Also, the “PD50 SM/Cpd. (compound part)” value with Proteus mirabilis 190 (with SM 0.39 mg. per kg.) is greater than 12.5 mg. per kg; in the series with Proteus mirabilis 190 (with SM 0.78 mg. per kg.), greater than 12.5 mg. per kg; with Proteus mirabilis 190 (with SM 1.56 mg. per kg.), 9.39 mg. per kg; in the series on Proteus mirabilis 190 (with SM 3.11 mg. per kg.) it was 2.55 mg. per kg. For the same molecule, the “synergistic effect with sulfamethoxazole” value in the series with bacterial infections is recorded as “synergistic effect”.

In the case of `Nc1nc(N)c2c(ccc3c2ccn3-c2nccs2)n1` [Example 81, 7-(2-thiazolyl)-7H-pyrrolo[3,2-f]quinazoline-1,3-diamine], the MIC against E. coli 9637 turned out to be 0.976 µg/mL (≈ 3.46 µM); against P. vulgaris 6896 it was 3.9 µg/mL (≈ 13.8 µM); against K. pneumoniae 10031 it was 0.244 µg/mL (≈ 0.864 µM); in the series on S. aureus Smith, 0.488 µg/mL (≈ 1.73 µM); against S. paratyphi 11737 it was 1.95 µg/mL (≈ 6.91 µM); against S. aureus 53-180 it was 0.244 µg/mL (≈ 0.864 µM). This molecule also returned an MIC with N. catarrhalis 8193 of 0.0152 µg/mL (≈ 0.0538 µM). In [2], the minimal effective dose stood at 640 mg/kg. In addition, the “Cure/Treat at Min. Curing Dose” value in [2] is 4/5. Further, in series [2] (dose 160 mg. per kg.), the “ΔMST (increase in mean survival time)” value stood at 8.3. In addition, the ED50 in the series on Proteus mirabilis 190 was determined as 22.3 mg/kg. Also, the “PD50 SM/Cpd. (compound part)” value in the series on Proteus mirabilis 190 (with SM 1.56 mg. per kg.) is on record as greater than 12.5 mg. per kg; in the series on Proteus mirabilis 190 (with SM 3.11 mg. per kg.), 6.25 mg. per kg. In the series with bacterial infections, the “synergistic effect with sulfamethoxazole” value was “synergistic effect”.
